This note sets out measurements from patent US7144991B2, “Streptavidin expressed gene fusions and methods of use thereof” (Aletheon Pharmaceuticals, Inc., priority 1999, dated 2006).

Several values for one entry are separate records, joined by “and”; a condition that tells them apart may be missing. Equal entries are not always repeated.

A short description of the experiment: Biotin binding capacity. The conditions noted are these: 9-fold molar excess of [3H]biotin. How it is done: Biotin Binding and Dissociation. Biotin binding capacity was determined by incubation of a known quantity of fusion protein with a 9-fold molar excess of [3H]biotin (NEN Research Products, Boston, Mass.). After removal of uncomplexed biotin using streptavidin-immobilized beads (Pierce Chemical; Rockford, Ill.), the amount of [^3H]biotin associated with the fusion protein was determined.
Biotin Binding Capacity. Biotin binding capacity was determined by incubation of a known quantity of fusion protein with a 9-fold molar excess of [^3H]biotin (NEN Research Products, Boston, Mass.). After removal of uncomplexed biotin using streptavidin-immobilized beads (Pierce Chemical; Rockford, Ill.), the amount of [^3H]biotin associated with the fusion protein was determined.

For the substance “recombinant streptavidin: recombinant streptavidin (Roche Biochemical), control in biotin binding and dissociation”, the “Biotin binding capacity (average biotins bound)” value was 4 biotins and 4.0 biotins.
